The values that follow come from patent US12134620B2 (ARAXES PHARMA LLC, priority 2018, dated 2024).

The assay has as its target T1, KRAS G12C 1-169, his-tagged protein, GDP-loaded (Homo sapiens, UniProt P01116, G12C).
T1 construct: KRAS G12C 1-169, his-tagged protein, GDP-loaded; His tag
Briefly: Biochemical assay: covalent modification of KRAS G12C, analysed by mass spectrometry (RapidFire/TOF or Q-Exactive). Further: time not given here. The assay is classed as binding. The settings on record: Modification activity, modification percentage from MS peak intensities. A digest of the protocol: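 Covalent adduct formation was quantified by intact-protein mass spectrometry, either TOF or C4 LC-Q Exactive Plus, as percent modified versus unmodified protein after deconvolution. Compounds at 8 or 32 μM final were incubated with 0.5 or 2 μM GDP-bound KRAS G12C(1-169)-His in Hepes/NaCl/MgCl2 buffer before acid quench.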
Turning to `C=CC(=O)N1CC2(CCN(c3nc(OCc4ccccn4)nc(-c4cc(O)cc5ccccc45)c3C#N)C2)C1` [Compound I-114, 4-(2-acryloyl-2,6-diazaspiro[3.4]octan-6-yl)-6-(3-hydroxynaphthalen-1-yl)-2-(pyridin-2-ylmethoxy)pyrimidine-5-carbonitrile], the Binding % result is listed as “+++ (+++ indicates binding activity greater than 85%)”.

Turning to `C=CC(=O)N1CC2(CCN(c3nc(OCc4cccc(C(F)(F)F)n4)nc(-c4c(C)ccc5cnn(C)c45)c3C#N)C2)C1` [Compound I-156, 4-(2-acryloyl-2,6-diazaspiro[3.4]octan-6-yl)-6-(1,6-dimethyl-1H-indazol-7-yl)-2-((6-(trifluoromethyl)pyri-din-2-yl)methoxy)pyrimidine-5-carbonitrile], the Binding % result is reported as “++ (++ indicates binding activity from 50 to 85%)”.

With `C=CC(=O)N1CC2(CCN(c3nc(OCc4cnc(OC)nc4)nc(-c4c(C)ccc5cnn(C)c45)c3C#N)C2)C1` [Compound I-161, 4-(2-acryloyl-2,6-diazaspiro[3.4]octan-6-yl)-6-(1,6-dimethyl-1H-indazol-7-yl)-2-((2-methoxypyrimidin-5-yl)methoxy)pyrimidine-5-carbonitrile], the Binding % entry is “++ (++ indicates binding activity from 50 to 85%)”.

Regarding `Cc1ccc2[nH]ncc2c1-c1nc(N2CCOCC2)nc(N2CCC3(CN(C(=O)/C=C/CN4CCC4)C3)C2)c1C#N` [Compound I-200, (E)-4-(2-(4-(azetidin-1-yl)but-2-enoyl)-2,6-diazaspiro[3.4]octan-6-yl)-6-(5-methyl-1H-indazol-4-yl)-2-morpholinopyrimidine-5-carbonitrile], the Binding % result is given as “++ (++ indicates binding activity from 50 to 85%)”.

For `C=CC(=O)N1CC2(CCN(c3cnc(Cc4ccccc4)c(-c4c(C)ccc5[nH]ncc45)c3C#N)C2)C1` [Compound I-223, 5-(2-acryloyl-2,6-diazaspiro[3.4]octan-6-yl)-2-benzyl-3-(5-methyl-1H-indazol-4-yl)isonicotinonitrile], the Binding % entry is listed as “++ (++ indicates binding activity from 50 to 85%)”.

With `C=CC(=O)N1CC2(CCN(c3nc(N4CCOCC4)nc(-c4c(C)ccc5[nH]nc(C6CC6)c45)c3C#N)C2)C1` [Compound I-206, 4-(2-acryloyl-2,6-diazaspiro[3.4]octan-6-yl)-6-(3-cyclopropyl-5-methyl-1H-indazol-4-yl)-2-morpholinopyrimidine-5-carbonitrile], the Binding % entry was “+ (+ indicates binding activity greater than 0% and up to 50%)”.

As for `C=CC(=O)N1CC2(CCN(c3nc(N4CCC(CN(C)C)CC4)nc(-c4c(C)ccc5[nH]ncc45)c3C#N)C2)C1` [Compound I-213, 4-(2-acryloyl-2,6-diazaspiro[3.4]octan-6-yl)-2-(4-((dimethylamino)meth-yl)piperidin-1-yl)-6-(5-methyl-1H-indazol-4-yl)pyrimidine-5-carbontrile], the Binding % entry is “+++ (+++ indicates binding activity greater than 85%)”.

Consider `C=CC(=O)N1CC2(CCN(c3nc(N4CCC(F)(F)C4)nc(-c4c(C)ccc5[nH]ncc45)c3C#N)C2)C1` [Compound I-27, 4-(2-acryloyl-2,6-diazaspiro[3.4]octan-6-yl)-2-(3,3-difluoropyrrolidin-1-yl)-6-(5-methyl-1H-indazol-4-yl)pyrimidine-5-carbonitrile], for which the Binding % entry is “+++ (+++ indicates binding activity greater than 85%)”.

Consider `C=CC(=O)N1CC2(CCN(c3nc(N4CCC(N5CCN(C)[C@@H](C)C5)CC4)nc(-c4c(C)ccc5[nH]ncc45)c3C#N)C2)C1` [Compound I-191, 4-(2-acryloyl-2,6-diazaspiro[3.4]octan-6-yl)-2-(4-((S)-3,4-dimethylpiperazin-1-yl)piperidin-1-yl)-6-(5-methyl-1H-indazol-4-yl)pyrimidine-5-carbonitrile], for which the Binding % result is “+++ (+++ indicates binding activity greater than 85%)”.

Regarding `C=CC(=O)N1CC2(CCN(c3nc(OCc4cc(C(F)(F)F)ccn4)nc(-c4c(C)ccc5cnn(C)c45)c3C#N)C2)C1` [Compound I-166, 4-(2-acryloyl-2,6-diazaspiro[3.4]octan-6-yl)-6-(1,6-dimethyl-1H-indazol-7-yl)-2-((4-(trifluoromethyl)pyri-din-2-yl)methoxy)pyrimidine-5-carbonitrile], the Binding % entry is on record as “++ (++ indicates binding activity from 50 to 85%)”.

As for `C=CC(=O)N1CC2(CCN(c3nc(N4CCOCC4)nc(-c4cc(O)cc5ccccc45)c3C#N)C2)C1` [Compound I-80, 4-(2-acryloyl-2,6-diazaspiro[3.4]octan-6-yl)-6-(3-hydroxynaphthalen-1-yl)-2-morpholinopyrimidine-5-carbonitrile], the Binding % result is “+++ (+++ indicates binding activity greater than 85%)”.

`C=CC(=O)N1CC2(CCN(c3nc(OCc4cnc(C)nc4)nc(-c4c(C)ccc5cnn(C)c45)c3C#N)C2)C1` [Compound I-169, 4-(2-acryloyl-2,6-diazaspiro[3.4]octan-6-yl)-6-(1,6-dimethyl-1H-indazol-7-yl)-2-((2-methylpyrimidin-5-yl)methoxy)pyrimidine-5-carbonitirle]: the Binding % result is “++ (++ indicates binding activity from 50 to 85%)”.

With `C=CC(=O)N1CC2(CCN(c3nc(OCc4cccc(C)n4)nc(-c4c(C)ccc5[nH]ncc45)c3C#N)C2)C1` [Compound I-172, 4-(2-acryloyl-2,6-diazaspiro[3.4]octan-6-yl)-6-(5-methyl-1H-indazol-4-yl)-2-((6-methylpyridin-2-yl)methoxy)pyrimidine-5-carbonitrile], the Binding % result is reported as “+++ (+++ indicates binding activity greater than 85%)”.

Consider `C=CC(=O)N1CC2(CCN(c3nc(OCc4ccccn4)nc(-c4c(C)ccc5cnn(C)c45)c3C#N)C2)C1` [Compound I-102, 4-(2-acryloyl-2,6-diazaspiro[3.4]octan-6-yl)-6-(1,6-dimethyl-1H-indazol-7-yl)-2-(pyridin-2-ylmethoxy)pyrimidine-5-carbonitrile], for which the Binding % entry is “++ (++ indicates binding activity from 50 to 85%)”.

In the case of `C=CC(=O)N1CC2(CCN(c3nc(OCc4ccc(N5CCOCC5)cn4)nc(-c4c(C)ccc5cnn(C)c45)c3C#N)C2)C1` [Compound I-162, 4-(2-acryloyl-2,6-diazaspiro[3.4]octan-6-yl)-6-(1,6-dimethyl-1H-indazol-7-yl)-2-((5-morpholinopyridin-2-yl)methoxy)pyrimidine-5-carbonitrile], the Binding % result is “++ (++ indicates binding activity from 50 to 85%)”.

Consider `C=CC(=O)N1CC2(CCN(c3ncnc(-c4c(O)cccc4F)c3C#N)C2)C1` [Compound I-228, 4-(2-acryloyl-2,6-diazaspiro[3.4]octan-6-yl)-6-(2-fluoro-6-hydroxyphenyl)pyri-midine-5-carbonitrile], for which the Binding % result was “+ (+ indicates binding activity greater than 0% and up to 50%)”.

Take `C=CC(=O)N1CC2(CCN(c3nc(OCc4ccc(N5CCN(C)CC5)cn4)nc(-c4c(C)ccc5cnn(C)c45)c3C#N)C2)C1` [Compound I-186, 4-(2-acryloyl-2,6-diazaspiro[3.4]octan-6-yl)-6-(1,6-dimethyl-1H-indazol-7-yl)-2-((5-(4-methylpiperazin-1-yl)pyridin-2-yl)methoxy)pyrimidine-5-carbonitrile]: the Binding % entry is “+ (+ indicates binding activity greater than 0% and up to 50%)”.

As for `C=CC(=O)N1CC2(CCN(c3c(OC[C@@H]4CCCN4C)ncc(-c4c(C)ccc5[nH]ncc45)c3C#N)C2)C1` [Compound I-199, 3-(2-acryloyl-2,6-diazaspiro[3.4]octan-6-yl)-5-(5-methyl-1H-indazol-4-yl)-2-(((S)-1-methylpyrrolidin-2-yl)methoxy)isonicoti-nonitrile], the Binding % result was “++ (++ indicates binding activity from 50 to 85%)”.

For the compound `C=CC(=O)N1CC2(CCN(c3nc(NC(=O)c4ccccn4)nc(-c4c(C)ccc5[nH]ncc45)c3C#N)C2)C1` [Compound I-41, N-(4-(2-acryloyl-2,6-diazaspiro[3.4]octan-6-yl)-5-cyano-6-(5-methyl-1H-indazol-4-yl)pyrimidin-2-yl)picolinamide], the Binding % result is recorded as “+++ (+++ indicates binding activity greater than 85%)”.

For the compound `C=CC(=O)N1CC2(CCN(c3nc(N4CCC5CCN(C)C5C4)nc(-c4c(C)ccc5[nH]ncc45)c3C#N)C2)C1` (stereo not drawn) [Compound I-40, 4-(2-acryloyl-2,6-diazaspiro[3.4]octan-6-yl)-6-(5-methyl-1H-indazol-4-yl)-2-(1-methyloctahydro-6H-pyrrolo[2,3-c]pyridin-6-yl)pyrimidine-5-carbonitrile], the Binding % result is “+++ (+++ indicates binding activity greater than 85%)”.

Take `C=CC(=O)N1CC2(CCN(c3nc(N4CCC[C@H]4CO)nc(-c4c(C)ccc5[nH]ncc45)c3C#N)C2)C1` [Compound I-210, 4-(2-acryloyl-2,6-diazaspiro[3.4]octan-6-yl)-2-((S)-2-(hydroxymethyl)pyrro-lidin-1-yl)-6-(5-methyl-1H-indazol-4-yl)pyrimidin-5-carbonitrile]: the Binding % result is “+ (+ indicates binding activity greater than 0% and up to 50%)”.

With `C=CC(=O)N1CC2(CCN(c3cncc(-c4c(C)ccc5[nH]ncc45)c3C#N)CC2)C1` [Compound I-263, 3-(2-acryloyl-2,7-diazaspiro[3.5]nonan-7-yl)-5-(5-methyl-1H-indazol-4-yl)isonicotinonitrile], the Binding % entry is “+ (+ indicates binding activity greater than 0% and up to 50%)”.

Take `C=CC(=O)N1CC2(CCN(c3cnc(-c4ccccc4)c(-c4c(C)ccc5[nH]ncc45)c3C#N)C2)C1` [Compound I-207, 5-(2-acryloyl-2,6-diazaspiro[3.4]octan-6-yl)-3-(5-methyl-1H-indazol-4-yl)-2-phenylisonicotinonitrile]: the Binding % entry was “++ (++ indicates binding activity from 50 to 85%)”.

As for `C=CC(=O)N1CC2(CCN(c3nc(OCc4ccccn4)nc(-c4cccc5ccccc45)c3C#N)C2)C1` [Compound I-113, 4-(2-acryloyl-2,6-diazaspiro[3.4]octan-6-yl)-6-(naphthalen-1-yl)-2-(pyridin-2-ylmethoxy)pyrimidine-5-carbonitrile], the Binding % result was “+ (+ indicates binding activity greater than 0% and up to 50%)”.
